Experimental data as given in paper PMC6112376, “Comprehensive Analyses and Prioritization of Tox21 10K Chemicals Affecting Mitochondrial Function by in-Depth Mechanistic Studies” (Environmental Health Perspectives, 2018).
Read-outs that look alike come from different tables or passages of the source.

Tests used:
hNSC = assay: MMP assay in human neural stem cells (hNSC); format: cell-based; details: Homo sapiens, Neural stem cell, 1 h, read-out: hNSC IC50 (MMP)
HepG2 cells [1] = assay: ROS-Glo hydrogen peroxide (ROS) assay; format: cell-based, human
HepG2 cells [2] = assay: Intracellular ATP content (cell viability) assay; format: cell-based, human; details: Homo sapiens, HepG2, 40 h
[3] = system: p53 (p53-bla HCT-116 cells); assay: p53 β-lactamase reporter gene assay; format: cell-based, human; details: 16 h incubation, mean±SD of three experiments
[4] = system: Nrf2/ARE (ARE-bla HepG2 cells); assay: ARE β-lactamase reporter gene assay; format: cell-based, human; details: 16 h incubation, mean±SD of three experiments
[5] = system: isolated rat liver mitochondria; assay: Oxygen consumption, Clark-type oxygen electrode; format: biochemical
[6] = system: HeLa cells expressing YFP-Parkin; assay: Parkin translocation assay; format: cell-based, human
rat primary hepatocytes [7] = system: rat primary hepatocytes
HepG2 cells [8] = details: cited from earlier work; for IC50: read-out: MMP assays IC50 (µM), qHTS-HepG2
HepG2 cells [9] = assay: cells; details: Homo sapiens; for Emax: HepG2, read-out: MMP assays efficacy (%) HepG2
[10] = system: Caenorhabditis elegans strain PE255; assay: In vivo C. elegans ATP status assay
rat primary hepatocytes [11] = assay: MMP assay in rat primary hepatocytes; details: Rattus norvegicus, Hepatocyte
[12] = system: Caenorhabditis elegans (Bristol N2); assay: C. elegans larval development and growth assay
[13] = read-out: ATP (HepG2, galactose) IC50
[14] = read-out: ATP (HepG2, glucose) IC50
[15] = HepG2, 1 h, read-out: HepG2 IC50 Galactose (MMP)
[16] = HepG2, 1 h, read-out: HepG2 IC50 Glucose (MMP)
[17] = 1 h, read-out: Rat hepatocytes IC50 (MMP)

With `CO[C@H]1/C=C/O[C@@]2(C)Oc3c(C)c(O)c4c(O)c(c(/C=N/N5CCN(C6CCCC6)CC5)c(O)c4c3C2=O)NC(=O)/C(C)=C\C=C\[C@H](C)[C@H](O)[C@@H](C)[C@@H](O)[C@@H](C)[C@H](OC(C)=O)[C@@H]1C` [Rifapentine, reference compound] the IC50 (hNSC) was 8070 nM, the “ROS (HepG2) EC50” value (HepG2 cells [1]) was “Inactive” and the IC50 (HepG2 cells [2]; [13]) was 36000 nM. For the same molecule, the IC50 (HepG2 cells [2]; [14]) was 43400 nM, the “p53 (HCT-116) EC50” value [3] was “Inactive” and the EC50 ([4]; Homo sapiens, HepG2, read-out: ARE (HepG2) EC50) was 29300 ± 7090 nM. The “Potential Mechanism” value [5] was “Inactive”, the “I-ADP, % of control (O2 consumption rate)” value ([5]; 4 µM) was 88 (48.1) % of control and the “I-sub, % of control (O2 consumption rate)” value ([5]; 4 µM) was 98 (12.8) % of control. The “II-ADP, % of control (O2 consumption rate)” value (from here on “II-ADP, % of control”) ([5]; 4 µM) was 94 (82.6) % of control, the “II-sub, % of control (O2 consumption rate)” value (“II-sub, % of control” below) ([5]; 4 µM) was 92 (22.7) % of control and the “I-ADP, % of control (O2 consumption rate)” value ([5]; 20 µM) was 86 (47.1) % of control. For the same molecule, the “I-sub, % of control (O2 consumption rate)” value ([5]; 20 µM) was 127 (16.7) % of control, the “II-ADP, % of control” value ([5]; 20 µM) was 85 (75.2) % of control and the “II-sub, % of control” value ([5]; 20 µM) was 101 (24.8) % of control. For the same molecule, the Parkin recruitment [6] was “Inactive”, the “Rat hepatocytes (efficacy) (MMP)” value (rat primary hepatocytes [7]) was 5.94±1.48 ( −73.4±10.2 ) % and the “MMP assays efficacy (%) qHTS-HepG2” value (HepG2 cells [8]) was -104±16%. The IC50 (HepG2 cells [8]) was 1.46 ± 0.26 µM, the IC50 (HepG2 cells [9]; [15]) was 17.7 µM and the IC50 (HepG2 cells [9]; [16]) was 13.9 µM. For the same molecule, the IC50 (HepG2 cells [9]; HepG2, read-out: MMP assays IC50 (µM) HepG2) was 3.88 µM, the Emax (HepG2 cells [9]) was 101% and the “effect on ATP content (in words)” value ([10]; 0.5–100μM) was “statistically significant decreases in ATP content”. The minimal effective concentration ([10]; Caenorhabditis elegans, read-out: LEC LUM: lowest effect concentration for luminescence, a measure of nematode ATP content) was 100 µM, the IC50 (rat primary hepatocytes [11]; [17]) was 5.94 µM and the IC50 (rat primary hepatocytes [11]; read-out: MMP assays IC50 (µM) Rat Hepatocytes) was 0.62 ± 0.55 µM. The “effect on larval growth (in words)” value ([12]; 0.5–100μM) was “did not affect growth”.

For `O=C(Nc1ccc([N+](=O)[O-])cc1Cl)c1cc(Cl)ccc1O` [Niclosamide, reference compound], the IC50 (hNSC) was 420 nM, the “ROS (HepG2) EC50” value (HepG2 cells [1]) was “Inactive” and the IC50 (HepG2 cells [2]; [13]) was 2260 nM. The IC50 (HepG2 cells [2]; [14]) was 2010 nM, the EC50 ([3]; Homo sapiens) was 580 ± 490 nM and the “ARE (HepG2) EC50” value [4] was “Inactive”. The “Potential Mechanism” value [5] was “Uncoupler at low concentrations (0.064-0.16 µM), and Uncoupler + inhibitor at high concentrations (0.8-100 µM)”, the “I-ADP, % of control (O2 consumption rate)” value ([5]; 0.00128 µM) was 85 (30.5) % of control and the “I-sub, % of control (O2 consumption rate)” value ([5]; 0.00128 µM) was 109 (10.5) % of control. The “II-ADP, % of control” value ([5]; 0.00128 µM) was 92 (49.0) % of control, the “II-sub, % of control” value ([5]; 0.00128 µM) was 108 (17.7) % of control and the “I-ADP, % of control (O2 consumption rate)” value ([5]; 0.0064 µM) was 88 (31.4) % of control. For the same molecule, the “I-sub, % of control (O2 consumption rate)” value ([5]; 0.0064 µM) was 125 (12.0) % of control, the “II-ADP, % of control” value ([5]; 0.0064 µM) was 87 (46.4) % of control and the “II-sub, % of control” value ([5]; 0.0064 µM) was 109 (17.9) % of control. The “I-ADP, % of control (O2 consumption rate)” value ([5]; 0.032 µM) was 103 (36.6) % of control, the “I-sub, % of control (O2 consumption rate)” value ([5]; 0.032 µM) was 192 (18.4) % of control and the “II-ADP, % of control” value ([5]; 0.032 µM) was 89 (47.7) % of control. The “II-sub, % of control” value ([5]; 0.032 µM) was 132 (21.7) % of control, the “I-ADP, % of control (O2 consumption rate)” value ([5]; 0.16 µM) was 126 (45.0) % of control and the “I-sub, % of control (O2 consumption rate)” value ([5]; 0.16 µM) was 419 (40.2) % of control. For the same molecule, the “II-ADP, % of control” value ([5]; 0.16 µM) was 92 (49.0) % of control, the “II-sub, % of control” value ([5]; 0.16 µM) was 230 (37.8) % of control and the “I-ADP, % of control (O2 consumption rate)” value ([5]; 0.8 µM) was 85 (30.2) % of control. For the same molecule, the “I-sub, % of control (O2 consumption rate)” value ([5]; 0.8 µM) was 308 (29.6) % of control, the “II-ADP, % of control” value ([5]; 0.8 µM) was 53 (28.1) % of control and the “II-sub, % of control” value ([5]; 0.8 µM) was 204 (33.5) % of control. The “I-ADP, % of control (O2 consumption rate)” value ([5]; 4 µM) was 70 (25.1) % of control, the “I-sub, % of control (O2 consumption rate)” value ([5]; 4 µM) was 276 (26.5) % of control and the “II-ADP, % of control” value ([5]; 4 µM) was 39 (21.1) % of control. For the same molecule, the “II-sub, % of control” value ([5]; 4 µM) was 147 (24.1) % of control, the “I-ADP, % of control (O2 consumption rate)” value ([5]; 20 µM) was 79 (28.1) % of control and the “I-sub, % of control (O2 consumption rate)” value ([5]; 20 µM) was 308 (29.6) % of control. For the same molecule, the “II-ADP, % of control” value ([5]; 20 µM) was 37 (19.6) % of control, the “II-sub, % of control” value ([5]; 20 µM) was 145 (23.8) % of control and the “I-ADP, % of control (O2 consumption rate)” value ([5]; 100 µM) was 93 (42.6) % of control. For the same molecule, the “I-sub, % of control (O2 consumption rate)” value ([5]; 100 µM) was 296 (45.9) % of control, the “II-ADP, % of control” value ([5]; 100 µM) was 44 (31.3) % of control and the “II-sub, % of control” value ([5]; 100 µM) was 119 (37.3) % of control. For the same molecule, the Parkin recruitment [6] was “Active”, the “MMP assays efficacy (%) Rat Hepatocytes” value (rat primary hepatocytes [7]) was -112±30% and the “Rat hepatocytes (efficacy) (MMP)” value (rat primary hepatocytes [7]) was 1.36±0.16 ( −107±13.5 ) %. The “MMP assays efficacy (%) qHTS-HepG2” value (HepG2 cells [8]) was -98±4%, the IC50 (HepG2 cells [8]) was 0.03 ± 0.01 µM and the IC50 (HepG2 cells [9]; [15]) was 1.47 µM. The IC50 (HepG2 cells [9]; [16]) was 0.87 µM, the IC50 (HepG2 cells [9]; HepG2, read-out: IC50 in HepG2 cells (MMP, tier-one retest)) was 0.1 µM and the Emax (HepG2 cells [9]) was 87%. The “LUM: mean difference in luminescence (ATP content) relative to plate controls” value ([10]; 0.5 µM) was 0.1961, the “LUM: mean difference in luminescence (ATP content) relative to plate controls” value ([10]; 1 µM) was 0.1905 and the “LUM: mean difference in luminescence (ATP content) relative to plate controls” value ([10]; 5 µM) was 0.2783. For the same molecule, the “LUM: mean difference in luminescence (ATP content) relative to plate controls” value ([10]; 10 µM) was 0.1333, the “LUM: mean difference in luminescence (ATP content) relative to plate controls” value ([10]; 25 µM) was 0.2438 and the “LUM: mean difference in luminescence (ATP content) relative to plate controls” value ([10]; 50 µM) was 0.3. The “LUM: mean difference in luminescence (ATP content) relative to plate controls” value ([10]; 75 µM) was 0.12, the “LUM: mean difference in luminescence (ATP content) relative to plate controls” value ([10]; 100 µM) was 0.1413 and the IC50 (rat primary hepatocytes [11]; 1 h, read-out: IC50 in rat primary hepatocytes (MMP, tier-one retest)) was 0.44 µM. For the same molecule, the IC50 (rat primary hepatocytes [11]; [17]) was 1.36 µM, the “EXT: mean difference in nematode size relative to plate controls” value ([12]; 0.5 µM) was 0.005018 and the “EXT: mean difference in nematode size relative to plate controls” value ([12]; 1 µM) was -0.03083. The “EXT: mean difference in nematode size relative to plate controls” value ([12]; 5 µM) was -0.00657, the “EXT: mean difference in nematode size relative to plate controls” value ([12]; 10 µM) was 0.2753 and the “EXT: mean difference in nematode size relative to plate controls” value ([12]; 25 µM) was 0.1226. The “EXT: mean difference in nematode size relative to plate controls” value ([12]; 50 µM) was 0.2162.
